# Measurements published in paper PMC7321210, “Synthesis and Studies of the Inhibitory Effect of Hydroxylated Phenylpropanoids and Biphenols Derivatives on Tyrosinase and Laccase Enzymes” (Molecules, 2020).
# “Also recorded” adds a separate entry of the source.
# Experiments:
# [1] = molecular target: tyrosinase (Agaricus bisporus, UniProt C7FF04); assay: Tyrosinase amperometric biosensor: IC50 and type of inhibition; type: biochemical; conditions: for Type of Inhibition Tyrosinase: Lineweaver-Burk plot, biosensor exposed 30 min to twice the lowest inhibiting concentration; for VMAX, substrate + inhibitor, TYR: dopamine calibration 0-140 mM after inhibitor exposure, n=4 biosensors;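 as to all read-outs here: Carbon-composite amperometric tyrosinase biosensors with polyurethane-entrapped enzyme, calibrated in a three-electrode cell against Ag/AgCl at room temperature, before versus after inhibitor exposure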
# Description: (§1) Inhibition types and IC50 were assessed by means of carbon-based amperometric biosensors [61, 62, 63, 64, 65], that are described in the Supplementary Materials. During the experiments carried out to determine the IC50 values, the lowest inhibitory concentration of each compound was also evaluated.
# (§2) To verify the inhibition types, the following protocol was used. An initial calibration with dopamine, ranging between 0 and 140 mM, was performed in order to ascertain the values of VMAX and KM. Another calibration with the same protocol was performed after having exposed the biosensors to twice the lowest inhibiting concentration of each inhibitor, in order to ensure the safe inhibition of enzymatic activity. The biosensors were exposed to the inhibitor for 30 min and after having reached a stabile baseline, a calibration with dopamine, ranging between 0 and 140 mM, was performed and the value of VMAX and KM were calculated. The variations of both VMAX and KM were then analyzed by using the Lineweaver-Burk plot in order to identify the type of inhibition induced by the tested compound. The statistical difference in VMAX and KM, before exposing the biosensors to the inhibitor and then afterwards, was calculated by means of a paired t-test (p < 0.05).
# (§3) The biosensors were prepared starting from a Teflon™-insulated silver wire (30 mm in length; Ø = 125 μm),
# (§4) Briefly, 1 mm of the silver wire was exposed and then introduced into a silica
# (§5) capillary cylinder (10 mm in length; I.D. Ø = 180 μm, Polymicro Technologies, Phoenix, AZ, USA) partly
# (§6) packed with graphite-loaded (55% w/w) epoxy resin. By mixing 850 mg of graphite with 500 mg of Araldite-
# (§7) M and 200 mg of hardener, a preliminary disc electrode of carbon-composite was fabricated (Ø = 180 μm; area:
# (§8) 2.5 × 10−4 cm2) by filling the silica capillary tubing with the mixture. The silver wire assured a good electrical
# (§9) contact. After 24 h at 40 °C, the electrode surface was cleaned using a high-speed drill (Dremel® 300) equipped
# (§10) with an aluminum oxide grinding wheel. On top of the electrode surface a 1 µl of Tyrosinase or Laccase
# (§11) solution was deposited. After the complete evaporation of water at room temperature, the biosensor was
# (§12) quickly dipped in the polyurethane solution in order to entrap the enzyme on the electrode surface, and after
# (§13) the complete evaporation of the solvent biosensors were put to stabilize in PBS pH=6.0 overnight.
# (§14) The electrochemical measurements were performed at room temperature in a classical three-electrode
# (§15) electrochemical cell consisting of four biosensors as working electrodes, a reference electrode (Ag/AgCl in
# (§16) Constant potential amperometry (CPA) was used for in-vitro calibrations and for inhibition evaluation
# (§17) experiments by applying a constant potential of -50 mV against an Ag/AgCl reference electrode, by means of
# (§18) a four-channel potentiostat (eDAQ Quadstat, e- Corder 410, eDAQ Europe, Poland) and the software Chart (v
# (§19) 5.5, eDAQ Europe, Poland). Thus, once the stabilization of the baseline of biosensors was reached, increasing
# (§20) volumes of a stock solution of dopamine 1 M were added in order to obtain different concentrations ranging
# [2] = test system: PC12 cells; assay: Viability of PC12 cells (MTT assay); type: cell-based, rat; conditions: cell viability < 80%; screening from 1 to 40 μM, 24 h
# Description: Initially, the inhibitor concentrations on PC12 cells, i.e., a rat pheochromocytoma-derived cell line, were screened to assess the possible cytotoxicity of the molecules under study [55].
# (§21) 1.4 Viability and oxidative stress assays
# (§22) PC12 cells, rat pheochromocytoma-derived cell line (ATCCCRL-1721) (passages 12–25) were maintained at 37
# (§23) °C humidified air containing 5% CO2/95% atmospheric air and cultured in a 60 mm plastic culture plates with
# (§24) Dulbecco’s modified Eagle’s medium supplemented with 10% horse serum, 5% fetal bovine serum and 1% of
# (§25) penicillin/streptomycin. PC12 cells were treated for 24 h with the different compounds at different
# concentrations ranging from 1 to 40 μM, to evaluate their eventual toxicity.
# (§26) For all treatments cell viability was measured by means of MTT assay, as explained in
# the following paragraph [17].
# (§27) At the end of the exposure time of each experiment, the cell viability was assessed by means of MTT (3-(4,5-
# (§28) dimethyl-thiazol-2-yl)-2,5-diphenyltetrazoliumbromide) assay. For this purpose, 1 mg/mL of MTT was added
# (§29) to each sample and incubated for 4 h at 37 °C. Only viable cells are able to convert the soluble dye MTT into
# (§30) the insoluble formazan crystals. After the incubation the MTT supernatant solution was removed, the cells
# (§31) were washed in phosphate-buffered saline (PBS) and centrifuged while the pellet was dissolved in 2 mL of
# (§32) isopropanol. After centrifugation of the solution at 4,000 rpm for 5 min, the absorbance for each sample was
# (§33) assessed by means of a Bauty Diagnostic Microplate Reader at 578 nm. All experiments were performed in 24-
# (§34) well plates (1 × 10^5 cells/mL/well) and repeated in triplicate.
# [3] = test system: laccase; assay: Laccase amperometric biosensor: IC50 and type of inhibition; type: biochemical; conditions: for Type of Inhibition Laccase: Lineweaver-Burk plot, biosensor exposed 30 min to twice the lowest inhibiting concentration; for VMAX, substrate + inhibitor, LAC: dopamine calibration 0-140 mM after inhibitor exposure, n=4 biosensors; for IC50: enzyme immobilized on biosensor, dopamine 50 µM, PBS pH 6.0
# Description: as §1, §2, §3, §4, §5, §6, §7, §8, §9, §10, §11, §12, §13, §14, §15, §16, §17, §18, §19, §20
# [4] = test system: PC12 cells; assay: Protection of PC12 cells against MnCl2 damage (MTT); type: cell-based, rat; conditions: concentration with significant increase in viability vs MnCl2; co-treatment with 1 mM MnCl2; n.p.: no protection
# Description: as §22, §23, §24, §25
# (§35) concentrations ranging from 1 to 40 μM, to evaluate their eventual toxicity. Then, in order to assess the
# (§36) eventual compounds’ protection properties, PC12 cell treated with hydrogen peroxide (100μM) in association
# with increasing concentration of the above-mentioned molecules, from 1 up to 20 μM. For the compounds that
# against MnCl2 insult. For all treatments cell viability was measured by means of MTT assay, as explained in
# as §27
# For this purpose, 1 mg/mL of MTT was added
# as §29
# the insoluble formazan crystals. After the incubation the MTT supernatant solution was removed, the cells […]
# as §32
# assessed by means of a Bauty Diagnostic Microplate Reader at 578 nm. […]
# [5] = test system: mushroom tyrosinase; assay: Spectrophotometric (UV-Vis) detection of tyrosinase inhibitory activity; type: biochemical; conditions: for tyrosinase inhibition in words, tyrosine versus dopamine as substrate: UV-Vis, absorbance at 311 or 472 nm, Figure 3
# Description: Kinetic assays were carried out by measuring the appearance of the product of either tyrosine or dopamine oxidation in the reaction medium at 311 and 472 nm, respectively, in a Shimadzu UV-2501 spectrophotometer (Shimadzu, Kyoto, Japan) equipped with the UV-Probe software, using a tandem quartz cuvette (Hellma, Milan, Italy) with a 2 × 4.375-mm path length [1, 2, 51]. Briefly, one side of the dual chamber cuvette was filled with 1000 µl of mushroom tyrosinase solution in 50 mM phosphate buffer, pH 6.8, 166 Units/mL using tyrosine as substrate or a 16.6 Units/mL when dopamine was used as substrate. The other chamber was loaded with 980 µL of substrate solution (180 µM tyrosine or 18 µM dopamine) in 20 mM phosphate buffer (pH 6.8) added of either 20 µL of DMSO (control) or 20 µL of a 2 mM (0.2 mM in dopamine experiments) solution of tested inhibitors in DMSO. A background spectrum in the 250–700 nm range was acquired with a 2.0 nm slit and fast speed before starting the reaction. Thereafter, the solutions in the two chambers were mixed by inversion and the UV-Vis spectra were acquired at increasing time intervals. Spectra were recorded at 311 or 472 nm in the presence of the inhibitor before mixing, and after either 24 or 10 min, using tyrosine or dopamine as a substrate, respectively. Data processing was performed with UV Probe and OriginPro 2019 (v. 9.60) softwares.
# The mushroom tyrosinase was used as purchased without further purification. All solutions (tyrosinase, substrates and inhibitors) were filtered through a 0.45-μm syringe filter, aliquoted in Eppendorf tubes, and stored in freezer. The relative concentration was determined spectrophotometrically (εtyrosine 274.6 nm = 1420 M^−1·cm^−1; εdopamine at 280 nm = 2670 M^−1·cm^−1; εtyrosinase at 280 nm = 1426 M^−1·cm^−1).
# Tyrosine was dissolved in 50 mM phosphate buffer, pH 6.8, final concentration 80 µM and with the added inhibitor (final concentration 20 µM) and tyrosinase (83 U/mL). The absorbance values were determined after 24 min of incubation. In the presence of dopamine, experiments were performed using 10-fold diluted solutions, and the absorbance values were determined after 10 min of incubation.
# [6] = test system: Tenebrio molitor; assay: Insecticidal properties on mealworm larvae; type: in vivo; conditions: Tenebrio molitor, topical, 120 h, larvae immersed three seconds in 2.5 mL acetone solution 6.4 mg/mL, reared five days; DFB as Dimilin WP 25% a.i., 25.6 mg/mL; read-out: Mortality% (Mean ± SD)
# Description: Late instar larvae of Tenebrio molitor from a twenty-year-old insect culture at the Research Institute on Terrestrial Ecosystems (National Research Council, Sassari, Italy) were used in the experiments. The species was reared on bran flour, with the integration of fresh vegetables, at 25 °C, 65% relative humidity and 16:8 hours light/darkness.
# One hundred medium instar larvae were isolated in a petri dishes (diam. 50 mm). They were then immersed for three seconds in 2.5 mL of an acetone solution (concentration 6.4 mg/mL w:v) of one of the fourteen compounds listed in Table 3. In addition, a treatment with the commercial formulation Dimilin (WP, 25% a.i. diflubenzuron) (acetone solution, 25.6 mg/mL w:v) and a negative control (no treatment) were tested.
# After treatment, the larvae were subdivided into five 20-specimen groups and reared for five days in a small PVC box (150 L × 120 W × 50 H mm) with the same feed and conditions as standard rearing. Mortality was recorded daily.
# The statistical analysis was conducted with the R software (R Development Core Team 2016). Mortality data, expressed as a percentage, were arcsin(√x)-transformed to satisfy assumptions of normality. ANOVA was performed by the Duncan test for mean separation.
# [7] = test system: PC12 cells; assay: Protection of PC12 cells against H2O2-induced oxidative stress (MTT); type: cell-based, rat; conditions: for H2O2 Damage Protection: concentration with significant increase in viability vs H2O2, co-treatment with 100 μM H2O2, n.p.: no protection
# Description: as §21, §22, §23, §24, §25, §35, §36
# with increasing concentration of the above-mentioned molecules, from 1 up to 20 μM.
# as §26, §27, §28, §29, §30, §31, §32, §33, §34
# tyrosinase, sequence (C7FF04 2-392): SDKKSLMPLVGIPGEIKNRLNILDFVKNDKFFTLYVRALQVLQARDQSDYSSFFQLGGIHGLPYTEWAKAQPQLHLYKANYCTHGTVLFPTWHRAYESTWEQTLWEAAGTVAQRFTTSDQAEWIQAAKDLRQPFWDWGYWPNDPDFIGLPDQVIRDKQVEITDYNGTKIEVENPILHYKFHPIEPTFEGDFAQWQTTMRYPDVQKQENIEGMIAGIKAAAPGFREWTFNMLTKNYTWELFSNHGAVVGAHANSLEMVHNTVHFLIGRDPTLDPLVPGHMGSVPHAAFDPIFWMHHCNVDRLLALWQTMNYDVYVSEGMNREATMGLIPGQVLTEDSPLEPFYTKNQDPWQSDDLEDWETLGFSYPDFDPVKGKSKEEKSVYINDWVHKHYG
Structure (SMILES),Type of Inhibition Tyrosinase [1],"VMAX, substrate + inhibitor, TYR [1] [nA]",Toxic Concentration [2],Type of Inhibition Laccase [3],"VMAX, substrate + inhibitor, LAC [3] [nA]",MnCl2 Damage Protection [4],"tyrosinase inhibition in words, tyrosine versus dopamine as substrate [5]",pest or weed control at 6400 µg/mL [6] [%],H2O2 Damage Protection [7],IC50 [3] [nM],"% inhibition of tyrosinase ([5]; comparable with both substrates, tyrosine 80 µM, inhibitor 20 µM, 24 min, dopamine 10-fold diluted solutions, 10 min) [%]",melting point [°C],"change of cell viability versus H2O2 alone, in words ([7]; co-treatment with 100 μM H2O2, compounds 1 up to 20 μM)"
"CC(=O)C=Cc1ccc(O)cc1O [Compound 7, reference compound]",competitively; also recorded: competitive,114.1±12.5,>10 µM,competitively; also recorded: competitive,188.4±9.0,n.p.,most active tyrosinase inhibitor in the presence of both substrates,5 ± 7.07,1 µM,–,–,–,–
COc1cc(/C=C/C(=O)c2ccccc2)ccc1O [Compound 10],uncompetitive or mixed; also recorded: mixed,31.5±2.9,>20 µM,competitive,89.2±7.7,n.p.,–,–,20 µM,212,10,–,–
"OC[C@H]1O[C@@H](Oc2ccc(-c3ccc(O)c(Br)c3)cc2Br)[C@H](O)[C@@H](O)[C@@H]1O [Compound 19, (2S,3R,4S,5S,6R)-2-((3,3’-dibromo-4’-hydroxy-[1,1’-biphenyl]-4-yl)oxy)-6-(hydroxymethyl)tetrahydro-2H-pyran-3,4,5-triol]",noncompetitive,123.5±9.8,none,competitive,111.4±8.9,–,predominant inhibition of tyrosine oxidation,–,n.p.,130,–,176 to 178,significant decrease (p < 0.05 vs H2O2) in cells viability at all concentrations tested
